Data published in ChEMBL document CHEMBL2413072, “Synthesis and in vitro anticancer studies of novel C-2 arylidene congeners of lantadenes” (2013).

Tests used:
Format in all cases: functional
HOP-62 [1] = assay: Growth inhibition of human HOP62 cells assessed as cell growth at 10^-6 M by sulforhodamine B assay; settings: read-out: Activity
SW-620 [2] = assay: Growth inhibition of human SW620 cells by sulforhodamine B assay
SK-MEL-5 [3] = assay: Growth inhibition of human SK-MEL-5 cells assessed as cell growth at 10^-4 M by sulforhodamine B assay; settings: read-out: Activity
T47D [4] = assay: Growth inhibition of human T47D cells assessed as cell growth at 10^-7 M by sulforhodamine B assay; settings: read-out: Activity
HOP-92 [5] = assay: Growth inhibition of human HOP92 cells assessed as cell growth at 10^-7 M by sulforhodamine B assay; settings: read-out: Activity
SNB-19 = assay: Growth inhibition of human SNB19 cells assessed as cell growth at 10^-6 M by sulforhodamine B assay; settings: read-out: Activity
ACHN = assay: Growth inhibition of human ACHN cells assessed as cell growth at 10^-8 M by sulforhodamine B assay; settings: read-out: Activity
K562 [6] = assay: Growth inhibition of human K562 cells assessed as cell growth at 10^-4 M by sulforhodamine B assay; settings: read-out: Activity
T47D [7] = assay: Growth inhibition of human T47D cells by sulforhodamine B assay
A549 [8] = assay: Growth inhibition of human A549/ATCC cells assessed as cell growth at 10^-6 M by sulforhodamine B assay; settings: read-out: Activity
[9] = Growth inhibition of human HCC2998 cells assessed as cell growth at 10^-7 M by sulforhodamine B assay; settings: HCC 2998, read-out: Activity
A549 [10] = assay: Growth inhibition of human A549/ATCC cells assessed as cell growth at 10^-4 M by sulforhodamine B assay; settings: read-out: Activity
MCF7 [11] = assay: Growth inhibition of human MCF7 cells assessed as cell growth at 10^-4 M by sulforhodamine B assay; settings: read-out: Activity
CAKI-1 [12] = assay: Growth inhibition of human CAKI-1 cells assessed as cell growth at 10^-7 M by sulforhodamine B assay; settings: read-out: Activity
MCF7 [13] = assay: Growth inhibition of human MCF7 cells assessed as cell growth at 10^-7 M by sulforhodamine B assay; settings: read-out: Activity
CAKI-1 [14] = assay: Growth inhibition of human CAKI-1 cells assessed as cell growth at 10^-4 M by sulforhodamine B assay; settings: read-out: Activity
SF-268 [15] = assay: Growth inhibition of human SF268 cells assessed as cell growth at 10^-4 M by sulforhodamine B assay; settings: read-out: Activity
SF-268 [16] = assay: Growth inhibition of human SF268 cells assessed as cell growth at 10^-6 M by sulforhodamine B assay; settings: read-out: Activity
T47D [17] = assay: Growth inhibition of human T47D cells assessed as cell growth at 10^-6 M by sulforhodamine B assay; settings: read-out: Activity
MOLT-4 = assay: Growth inhibition of human MOLT4 cells assessed as cell growth at 10^-7 M by sulforhodamine B assay; settings: read-out: Activity
A549 [18] = assay: Growth inhibition of human A549/ATCC cells by sulforhodamine B assay
HCT-116 = assay: Growth inhibition of human HCT116 cells assessed as cell growth at 10^-8 M by sulforhodamine B assay; settings: read-out: Activity
SK-MEL-5 [19] = assay: Growth inhibition of human SK-MEL-5 cells assessed as cell growth at 10^-7 M by sulforhodamine B assay; settings: read-out: Activity
A549 [20] = assay: Growth inhibition of human A549/ATCC cells assessed as cell growth at 10^-8 M by sulforhodamine B assay; settings: read-out: Activity
TK-10 = assay: Growth inhibition of human TK10 cells assessed as cell growth at 10^-7 M by sulforhodamine B assay; settings: read-out: Activity
MDA-MB-231 = assay: Growth inhibition of human MDA-MB-231 cells assessed as cell growth at 10^-8 M by sulforhodamine B assay; settings: read-out: Activity
U-251 = assay: Growth inhibition of human U251 cells assessed as cell growth at 10^-4 M by sulforhodamine B assay; settings: read-out: Activity
K562 [21] = assay: Growth inhibition of human K562 cells assessed as cell growth at 10^-6 M by sulforhodamine B assay; settings: read-out: Activity
SW-620 [22] = assay: Growth inhibition of human SW620 cells assessed as cell growth at 10^-8 M by sulforhodamine B assay; settings: read-out: Activity
HOP-62 [23] = assay: Growth inhibition of human HOP62 cells assessed as cell growth at 10^-8 M by sulforhodamine B assay; settings: read-out: Activity
NCI-H23 = assay: Growth inhibition of human NCI-H23 cells by sulforhodamine B assay
HOP-92 [24] = assay: Growth inhibition of human HOP92 cells assessed as cell growth at 10^-4 M by sulforhodamine B assay; settings: read-out: Activity
RPMI-8226 = assay: Growth inhibition of human RPMI8226 cells by sulforhodamine B assay
HT-29 = assay: Growth inhibition of human HT-29 cells assessed as cell growth at 10^-7 M by sulforhodamine B assay; settings: read-out: Activity
[25] = Growth inhibition of human HCC2998 cells by sulforhodamine B assay
RXF 393 = assay: Growth inhibition of human RXF393 cells assessed as cell growth at 10^-6 M by sulforhodamine B assay; settings: read-out: Activity
SF-295 = assay: Growth inhibition of human SF295 cells assessed as cell growth at 10^-7 M by sulforhodamine B assay; settings: read-out: Activity
NCI-H522 = assay: Growth inhibition of human NCI-H522 cells assessed as cell growth at 10^-4 M by sulforhodamine B assay; settings: read-out: Activity
SNB-75 = assay: Growth inhibition of human SNB75 cells assessed as cell growth at 10^-8 M by sulforhodamine B assay; settings: read-out: Activity
SF-268 [26] = assay: Growth inhibition of human SF268 cells assessed as cell growth at 10^-8 M by sulforhodamine B assay; settings: read-out: Activity
OVCAR-4 = assay: Growth inhibition of human OVCAR4 cells assessed as cell growth at 10^-7 M by sulforhodamine B assay; settings: read-out: Activity
SR = assay: Growth inhibition of human SR cells assessed as cell growth at 10^-8 M by sulforhodamine B assay; settings: read-out: Activity
SK-MEL-2 = assay: Growth inhibition of human SK-MEL-2 cells assessed as cell growth at 10^-4 M by sulforhodamine B assay; settings: read-out: Activity
[27] = read-out: LC50 (the source's name)
[28] = read-out: pLC50 (the source's name) (converted)

CC(C)=CC(=O)O[C@@H]1CC(C)(C)C[C@H]2C3=CC[C@@H]4[C@@]5(C)CC[C@H](O)C(C)(C)[C@@H]5CC[C@@]4(C)[C@]3(C)CC[C@@]12C(=O)O [Reduced Lantadene B]
growth at 1 µM (HOP-62 [1]): 88% | GI50 (SW-620 [2]; read-out: GI50): 5.69 µM | CC50 (SW-620 [2]; [27]): > 100 µM | TGI (SW-620 [2]; read-out: TGI): 52.6 µM | GI50 (SW-620 [2]; read-out: pGI50 (converted)): 5.75 µM | CC50 (SW-620 [2]; [28]): > 100 µM | TGI (SW-620 [2]; read-out: pTGI (converted)): 52.5 µM | growth at 100 µM (SK-MEL-5 [3]): -64% | growth at 0.1 µM (T47D [4]): 95% | growth at 0.1 µM (HOP-92 [5]): 87% | growth at 1 µM (SNB-19): 86% | growth at 0.01 µM (ACHN): 103% | growth at 100 µM (K562 [6]): -1% | GI50 (T47D [7]; read-out: GI50): 16.7 µM | CC50 (T47D [7]; [27]): > 100 µM | TGI (T47D [7]; read-out: TGI): 63.4 µM | GI50 (T47D [7]; read-out: pGI50 (converted)): 16.6 µM | CC50 (T47D [7]; [28]): > 100 µM | TGI (T47D [7]; read-out: pTGI (converted)): 63.1 µM | growth at 1 µM (A549 [8]): 34% | growth at 0.1 µM [9]: 99% | growth at 100 µM (A549 [10]): -56% | growth at 100 µM (MCF7 [11]): -43% | growth at 0.1 µM (CAKI-1 [12]): 98% | growth at 0.1 µM (MCF7 [13]): 98% | growth at 100 µM (CAKI-1 [14]): -9% | growth at 100 µM (SF-268 [15]): -51% | growth at 1 µM (SF-268 [16]): 95% | growth at 1 µM (T47D [17]): 96% | growth at 0.1 µM (MOLT-4): 94% | GI50 (A549 [18]; read-out: GI50): 0.438 µM | CC50 (A549 [18]; [27]): 82.4 µM | TGI (A549 [18]; read-out: TGI): 14.9 µM | GI50 (A549 [18]; read-out: pGI50 (converted)): 0.437 µM | CC50 (A549 [18]; [28]): 83.2 µM | TGI (A549 [18]; read-out: pTGI (converted)): 14.8 µM | growth at 0.01 µM (HCT-116): 99% | growth at 0.1 µM (SK-MEL-5 [19]): 91% | growth at 0.01 µM (A549 [20]): 91% | growth at 0.1 µM (TK-10): 93% | growth at 0.01 µM (MDA-MB-231): 111% | growth at 100 µM (U-251): -61% | growth at 1 µM (K562 [21]): 69% | growth at 0.01 µM (SW-620 [22]): 102% | growth at 0.01 µM (HOP-62 [23]): 85% | GI50 (NCI-H23; read-out: GI50): 7.24 µM | CC50 (NCI-H23; [27]): 84 µM | TGI (NCI-H23; read-out: TGI): 26.9 µM | GI50 (NCI-H23; read-out: pGI50 (converted)): 7.24 µM | CC50 (NCI-H23; [28]): 83.2 µM | TGI (NCI-H23; read-out: pTGI (converted)): 26.9 µM | growth at 100 µM (HOP-92 [24]): -81% | GI50 (RPMI-8226; read-out: GI50): 2.43 µM | CC50 (RPMI-8226; [27]): > 100 µM | TGI (RPMI-8226; read-out: TGI): 38.3 µM | GI50 (RPMI-8226; read-out: pGI50 (converted)): 2.45 µM | CC50 (RPMI-8226; [28]): > 100 µM | TGI (RPMI-8226; read-out: pTGI (converted)): 38 µM | growth at 0.1 µM (HT-29): 95% | GI50 ([25]; HCC 2998, read-out: GI50): 3.72 µM | CC50 ([25]; HCC 2998, read-out: LC50 (the source's name)): 62.9 µM | TGI ([25]; HCC 2998, read-out: TGI): 15.3 µM | GI50 ([25]; HCC 2998, read-out: pGI50 (converted)): 3.72 µM | CC50 ([25]; HCC 2998, read-out: pLC50 (the source's name) (converted)): 63.1 µM | TGI ([25]; HCC 2998, read-out: pTGI (converted)): 15.5 µM | growth at 1 µM (RXF 393): 93% | growth at 0.1 µM (SF-295): 80% | growth at 100 µM (NCI-H522): -64% | growth at 0.01 µM (SNB-75): 85% | growth at 0.01 µM (SF-268 [26]): 93% | growth at 0.1 µM (OVCAR-4): 96% | growth at 0.01 µM (SR): 107% | growth at 100 µM (SK-MEL-2): -71%
